Series [1] in a line: Body weight of treated nude mice in the L3.6pl pancreatic tumour model. It is filed as in vivo, male athymic nude mice. On the procedure:
(§1) L3.6pl pancreatic cancer cells were obtained after successive cycles of cell selection from nude mouse tumour tissue that developed after injection of COLO 357 human pancreatic cancer cells. L3.6pl cancer cells (1×10^6 cells) were injected into the pancreas of each animal in several groups of male athymic nude mice (n=8 to 10 per group). […] On the days where both agents were given, the gemcitabine was dosed at least 1 hour before test compound Src-1. A control group of 10 mice received intraperitoneal injections of an equivalent volume of saline according to the same treatment schedule as the combination group. The animals were sacrificed 32 days after tumour cell injection. The pancreatic tumour weight was measured. The incidence of liver metastases was evaluated. All macroscopically enlarged liver nodules were evaluated by histopathology to confirm tumour metastasis.

Series [2] has as its system L3.6pl pancreatic cancer cells. In words: Orthotopic L3.6pl pancreatic tumour model in nude mice: pancreatic tumour weight and liver metastases. It is filed as in vivo, human. To be noted: for Liver Metastases: animals with metastases/animals.
Description: as §1, with “The test method has been described by C J Bruns et al., Cancer Research, 2000, 60, 2926-2935 and involves the injection of pancreatic tumour cells derived from the COLO 357 human pancreatic cancer cell line into pancreas tissue in a group of nude mice and an evaluation of tumour growth and metastasis into liver node tissue. L3.6pl pancreatic” for “L3.6pl pancreatic”

The mark [3] stands for this setting: Src-1 25 mg/kg orally by gavage daily, days 1-5 and 8-12, 32 days after tumour cell injection.
The mark [4] stands for this setting: Src-1 50 mg/kg orally by gavage daily, days 1-5 and 8-12, 32 days after tumour cell injection.

Where “and” joins values, the source holds several entries; their conditions need not be identical. Equal entries are not always repeated.

Regarding `COc1ccc(Cl)c(Nc2ncnc3cc(OCC4CCN(C)CC4)c(OC)cc23)c1` [Src-1, 4-(2-chloro-5-methoxyanilino)-6-methoxy-7-(N-methylpiperidin-4-ylmethoxy)quinazoline], the “Average Body Weight +/− std dev” value in series [1] (Src-1 25 mg/kg orally by gavage daily, days 1-5 and 8-12) is 22.6 ± 1.4 g; in series [1] (Src-1 50 mg/kg orally by gavage daily, days 1-5 and 8-12), 22.3 ± 6.8 g. The “Average Tumour Weight +/− std dev” value is 816 ± 118 mg in series [2] (setting [3]) and 827 ± 176 mg in series [2] (setting [4]). The “Liver Metastases” value in series [2] (setting [3]) and in series [2] (setting [4]) was 0/9 in each case.
With `Cl.Nc1ccn([C@@H]2O[C@H](CO)[C@@H](O)C2(F)F)c(=O)n1` [gemcitabine, 2′-deoxy-2′,2′-difluorocytidine monohydrochloride], in series [1] (gemcitabine 100 mg/kg intraperitoneal twice weekly), the “Average Body Weight +/− std dev” value is 22.7 ± 1.5 g. For the same compound, the “Liver Metastases” value in series [2] (gemcitabine 100 mg/kg intraperitoneal twice weekly (days 2, 5, 9, 12), sacrificed 32 days after tumour cell injection, monohydrochloride) was “⅕ and 1/5”. In addition, in series [2] (gemcitabine 100 mg/kg intraperitoneal twice weekly, 32 days after tumour cell injection), the “Average Tumour Weight +/− std dev” value came to 393 ± 68 mg.

The values are drawn from US20060142297A1, “Combination product of inhibitor of the src family of non-recetpor tyrosine kinases and gemcitabine” (priority 2002, published 2006).
